Experiments:
[1] = Solid stability assay (XRPD, HPLC); assay type: physicochemical
Experimental: Sample concentration: 0.5 mg/mL
According to influencing factor and accelerated assay conditions, about 5 mg of the crystal form B of the compound of formula (I) was accurately weighed and placed in a dry and clean glass bottle to form a thin layer as a formal assay sample in duplicate. The sample was placed under an influencing factor assay condition (60° C., 92.5% RH) and accelerated conditions (40° C./75% RH and 60° C./75% RH). The sample was fully exposed, and covered with aluminum foil paper punched with small holes. In addition, a small amount of sample was placed in a 40 mL glass sample bottle under the same conditions to determine the crystal state. The sample placed under light irradiation condition (1.2×10^6 Lux•hr/near ultraviolet 200 w•hr/m^2) was fully exposed at room temperature.

[2] = tested on: subcutaneous xenograft tumor of human gastric cancer NCI-N87 cells; test: In vivo pharmacodynamics, NCI-N87 subcutaneous xenograft (Assay Example 4); parameters: species or system mouse; conditions: 0.5 mg/kg, compared with the vehicle control group
Experimental: (§1) Purpose of the assay: in vivo efficacy of the assay compound disclosed herein on subcutaneous xenograft tumor of human gastric cancer NCI-N87 cells in a BALB/c nude mouse model was evaluated.
Animals of the assay: female BALB/c nude mice, 6-8 weeks old, weighted 18-22 grams; supplier: shanghai sippr bk laboratory animals Ltd.
(§2) Human gastric cancer NCI-N87 cells were cultured in monolayer in vitro. The culture conditions were RPMI-1640 medium plus 10% fetal bovine serum, 100 U/mL penicillin, 100 μg/mL streptomycin, 37° C., 5% CO2. The passaging was performed by conventional digestion with trypsin-EDTA twice a week. When the cell saturation was 80%-90%, the cells were collected, counted and inoculated.
0.2 mL (10×10^6) of NCI-N87 cells (PBS+Matrigel, 1:1) were inoculated subcutaneously on the right back of each mouse. […]
The assay index was to investigate whether tumor growth is inhibited, delayed or cured. Tumor diameter was measured twice a week with a vernier caliper. […]
The antitumor efficacy of the compounds was evaluated by TGI (%) or tumor proliferation rate T/C (%). […]
Statistical analysis included the mean and standard error of mean (SEM) of tumor volume at each time point in each group (See Table 14 for specific data). […] The comparison between groups was analyzed by T-test, and the comparison among three or more groups was analyzed by one-way ANOVA. […]

[3] = tested on: subcutaneous xenograft tumor of human gastric cancer NCI-N87 cells; test: In vivo pharmacodynamics, NCI-N87 subcutaneous xenograft (Assay Example 3); parameters: species or system mouse; conditions: 0.8 mg/kg, compared with the vehicle control group
Experimental: as §1
Animals of the assay: female BALB/c nude mice, 6-8 weeks old, weighted 18-22 grams; supplier: Shanghai Ling Chang Biotechnology Co., Ltd.
as §2, with “U/mL streptomycin and 2 mM glutamine,” for “μg/mL streptomycin,”, “by the” for “by”
0.2 mL (10×10^6) of NCI-N87 cells (PBS+Matrigel, 1:1) were inoculated subcutaneously on the right back of each nude mouse. When the average tumor volume reached 158 mm^3, administration to each group was started.
The assay compounds were formulated into 0.04 mg/mL and 0.08 mg/mL clear solution in the solvents of 10% NMP (N-methylpyrrolidone)+10% ethylene glycol stearate+80% water.
The assay index was to investigate whether tumor growth is inhibited, delayed or cured. Tumor diameter was measured twice a week with a vernier caliper. The calculation formula of tumor volume was: V=0.5a×b^2, wherein a and b represent the long and short diameters of tumor, respectively.
The antitumor efficacy of the compounds was evaluated by TGI (%) or tumor proliferation rate T/C (%). TGI (%) reflects tumor growth inhibition rate. […]
Statistical analysis included mean and standard error of mean (SEM) of tumor volume at each time point in each group (See Table 13 for specific data). […] The comparison between groups was analyzed by T-test, and the comparison among three or more groups was analyzed by one-way ANOVA. […]

CYP3A4 = biological target: T1, CYP3A4 (Homo sapiens, UniProt P08684); test: Inhibition of CYP enzyme activity in human liver microsome, CYP3A4; assay type: in vitro ADME
T1 construct: in the assay of CYP enzyme activity in human liver microsome; from tissue; host or cells: human liver microsome
Text: (§3) The results of the compound disclosed herein and the reference compound Poziotinib in the assay of CYP enzyme activity in human liver microsome were shown in the following table (Table 17).

[4] = tested on: subcutaneous xenograft tumor of human esophageal carcinoma OE21 cells; test: In vivo pharmacodynamics, OE21 subcutaneous xenograft (Assay Example 5); parameters: species or system mouse
Experimental: Purpose of the assay: in vivo efficacy of the assay compound on subcutaneous xenograft tumor of human esophageal carcinoma OE21 cells in a BALB/c nude mouse model was evaluated.
Animals of the assay: female BALB/c nude mice, 6-8 weeks old, weighted 17-23 grams; supplier: shanghai sippr bk laboratory animals Ltd.
as §2, with “esophageal carcinoma OE21” for “gastric cancer NCI-N87”, “U/mL streptomycin and 2 mM glutamine,” for “μg/mL streptomycin,”
0.1 ml […] OE21 cells (PBS) were inoculated subcutaneously on the right back of each mouse. When the average tumor volume reached 112 mm^3, administration to each group was started.
The assay compound was formulated into a 0.15 mg/mL to 0.3 mg/mL clear or suspension solution in the solvents of 10% NMP+10% ethylene glycol stearate+80% water.
The assay index was to investigate whether tumor growth is inhibited, delayed or cured. Tumor diameter was measured twice a week with vernier caliper. The calculation formula of tumor volume was: V=0.5a×b^2, wherein a and b represent the long and short diameters of tumor, respectively.
The antitumor efficacy of the compounds was evaluated by TGI (%) or relative tumor proliferation rate T/C (%). TGI (%) reflects the tumor growth inhibition rate. TGI (%) was calculated as follows: TGI (%)=[(1−average tumor volume at the end of administration for a certain treatment group−average tumor volume at the beginning of administration for this treatment group))/(average tumor volume at the end of treatment for a vehicle control group−average tumor volume at the beginning of administration for this vehicle control group)]×100%.
Relative tumor proliferation rate T/C (%): the calculation formula was as follows: T/C (%)=average tumor volume at the end of administration for a certain treatment group/average tumor volume at the end of treatment for the vehicle control group×100%.
Statistical analysis included the mean and standard error of mean (SEM) of tumor volume at each time point in each group. One-way ANOVA was used for comparison among three or more groups. […] SPSS 17.0 was used for all data analysis. p<0.05 was considered a significant difference.

CYP1A2 = biological target: T2, CYP1A2 (Homo sapiens, UniProt P05177); test: Inhibition of CYP enzyme activity in human liver microsome, CYP1A2; assay type: in vitro ADME; conditions: human liver microsome
T2 construct: in the assay of CYP enzyme activity in human liver microsome; from tissue; host or cells: human liver microsome
T2 sequence (P05177 1-516): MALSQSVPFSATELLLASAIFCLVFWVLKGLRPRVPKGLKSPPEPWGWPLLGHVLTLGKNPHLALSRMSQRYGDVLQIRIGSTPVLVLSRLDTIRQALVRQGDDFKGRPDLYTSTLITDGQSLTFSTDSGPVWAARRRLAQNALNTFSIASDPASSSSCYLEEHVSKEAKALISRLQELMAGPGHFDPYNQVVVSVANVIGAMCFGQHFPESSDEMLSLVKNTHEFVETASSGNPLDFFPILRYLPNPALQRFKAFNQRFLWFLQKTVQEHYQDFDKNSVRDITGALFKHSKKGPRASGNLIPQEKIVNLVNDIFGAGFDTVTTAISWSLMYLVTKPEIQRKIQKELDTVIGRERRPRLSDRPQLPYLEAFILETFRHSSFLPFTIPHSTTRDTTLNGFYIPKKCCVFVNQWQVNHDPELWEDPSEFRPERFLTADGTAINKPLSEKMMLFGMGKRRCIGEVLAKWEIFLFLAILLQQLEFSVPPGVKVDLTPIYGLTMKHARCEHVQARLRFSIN
Text: as §3

T1 sequence (P08684 whole entry): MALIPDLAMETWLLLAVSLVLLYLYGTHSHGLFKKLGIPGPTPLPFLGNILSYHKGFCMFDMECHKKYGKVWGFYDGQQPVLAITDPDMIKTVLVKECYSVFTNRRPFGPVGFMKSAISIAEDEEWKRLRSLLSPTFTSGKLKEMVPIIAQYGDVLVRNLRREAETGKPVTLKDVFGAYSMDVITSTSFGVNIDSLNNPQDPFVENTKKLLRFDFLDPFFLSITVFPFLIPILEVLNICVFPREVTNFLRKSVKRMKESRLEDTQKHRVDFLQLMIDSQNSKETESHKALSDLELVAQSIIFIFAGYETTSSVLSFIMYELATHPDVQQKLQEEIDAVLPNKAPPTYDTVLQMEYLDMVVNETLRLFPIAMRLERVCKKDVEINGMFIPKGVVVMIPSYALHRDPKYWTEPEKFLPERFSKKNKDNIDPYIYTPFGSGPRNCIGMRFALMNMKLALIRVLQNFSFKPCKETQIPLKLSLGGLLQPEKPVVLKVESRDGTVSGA

With `C=CC(=O)N1[C@@H]2CC[C@H]1C[C@H](Nc1cc3c(Nc4ccc(Cl)c(Cl)c4F)ncnc3cc1OC)C2.O=C(O)/C=C\C(=O)O` as the molecule, how does the Total impurity content ([1]; 40° C., 75% relative humidity, open, 1 month) read?
Its Total impurity content is 1.62%.

And the Total impurity content ([1]; 40° C., 75% relative humidity, open, 2 months)?
The Total impurity content was 1.52%.

What about the Total impurity content ([1]; 40° C., 75% relative humidity, open, 3 months) of the same molecule?
Its Total impurity content is 1.52%.

What about the Total impurity content ([1]; 40° C., 75% relative humidity, open, 10 days) of the same molecule?
The Total impurity content was 1.64%.

And the Total impurity content ([1]; 60° C., 75% relative humidity, open, 1 month)?
Its Total impurity content is 1.62%.

And the Total impurity content ([1]; 60° C., 75% relative humidity, open, 10 days)?
Its Total impurity content is 1.63%.

What about the Total impurity content ([1]; High humidity (25° C./92.5% relative humidity, open), 5 days) of the same molecule?
The Total impurity content was 1.65%.

What about the Total impurity content ([1]; High humidity (25° C./92.5% relative humidity, open), 10 days) of the same molecule?
Its Total impurity content is 1.65%.

What about the Total impurity content ([1]; High temperature (60° C., open), 5 days) of the same molecule?
Its Total impurity content is 1.64%.

What about the Total impurity content ([1]; High temperature (60° C., open), 10 days) of the same molecule?
Its Total impurity content is 1.64%.

What about the Total impurity content ([1]; Initial, 0 day) of the same molecule?
The Total impurity content was 1.64%.

What about the Total impurity content ([1]; Light irradiation (1.2 × 10^6 Lux · hr/near ultraviolet 200 w · hr/m^2, open), 10 days) of the same molecule?
The Total impurity content was 1.66%.

What about the Total impurity content ([1]; Protected from light, 10 days) of the same molecule?
The Total impurity content was 1.64%.

What about the “solid stability (in words)” value ([1]; conclusion over all conditions) of the same molecule?
The value was “good stability”.

For `C=CC(=O)N1CCC(Nc2cc3c(Nc4ccc(F)c(Cl)c4)ncnc3cc2OC)CC1` [Control compound 2, reference compound], which “tumor inhibitory effect (in words)” value [2] is on record?
The value was “not significant”.

Which “tumor inhibitory effect (in words)” value [3] does the source give for `C=CC(=O)N1CCC(Oc2cc3c(Nc4ccc(Cl)c(Cl)c4F)ncnc3cc2OC)CC1` [Poziotinib, reference compound] here?
The value was “significant tumor inhibitory effect”.

What about the “inhibitory activity on CYP3A4 (in words)” value (CYP3A4) of the same molecule?
The value was “no inhibitory activity”.

And the “body weight and clinical signs (in words)” value ([4]; 2/1.5 mg/kg)?
Its value is “varying degrees of body weight loss and dandruff”.

What about the “tumor inhibitory effect (in words)” value ([4]; 2/1.5 mg/kg, compared with the vehicle control group) of the same molecule?
Its value is “significant tumor inhibitory effect”.

What about the “Tumor volume (Day 21)” value ([4]; 2/1.5 mg/kg, Day 21, Mean + SEM) of the same molecule?
Its value is 57 ± 7 mm3.

What about the “body weight loss of individual mice (administration discontinued)” value ([4]; 2/1.5 mg/kg, from the 6th and 7th day, 1 mouse, then 3 mice) of the same molecule?
Its value is “more than 15%”.

And the “effect on the body weight of mice (in words)” value ([4]; discussion, high-dose group)?
Its value is “the body weight loss of mice was significant”.

What about the “dark yellow urine, suggestion of toxicity (in words)” value ([4]; mouse, in vivo) of the same molecule?
Its value is “mice in the whole group had dark yellow urine”.

What about the “inhibitory activity on CYP1A2 (in words)” value (CYP1A2) of the same molecule?
The value was “no inhibitory activity”.

Reference: patent publication US20220242851A1, “CRYSTAL FORM AND SALT OF QUINAZOLINE COMPOUND AND PREPARATION METHOD THEREOF” (SHENZHEN JINRUI FOUNDATION BIOTECH CO., LTD, priority 2019, published 2022)
